The text below walks through data of PubChem BioAssay (NCI).

Test systems include HT29 colon; K-562 leukemia; KM12 colon; M14 melanoma; OVCAR-8 ovarian; PC-3 prostate; RXF 393 renal; SF-295 CNS; SW-620 colon; T-47D breast.
Common to all, as to experiment: NCI tumour cell line growth inhibition, 48 h

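Values below derive from 48-hour exposures of cells grown in 96-well plates, with endpoints linearly interpolated between the two concentrations bracketing the appropriate inhibition level. Abbreviation: GI50, concentration required for 50% inhibition of growth. At the TGI there is no net growth.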

Consider `Cc1nc2sc(C(=O)Nc3cccc4ccccc34)c(N)c2cc1C(C)O` (stereo not drawn), for which the GI50 with HT29 colon is 0.191 µM; in the experiment on K-562 leukemia, 0.157 µM; in the experiment with KM12 colon, 0.199 µM; with M14 melanoma, 0.176 µM; with OVCAR-8 ovarian, 0.368 µM; in the experiment on PC-3 prostate, 0.285 µM. Besides, the GI50 was 0.151 µM in the experiment with RXF 393 renal, 0.171 µM in the experiment on SF-295 CNS, 0.175 µM in the experiment with SW-620 colon and 0.183 µM in the experiment with T-47D breast. Further, the TGI with HT29 colon is 14.9 µM; in the experiment with K-562 leukemia it was more than 50 µM; with KM12 colon it was more than 50 µM; in the experiment on M14 melanoma it was more than 50 µM; with OVCAR-8 ovarian, more than 50 µM; in the experiment with PC-3 prostate, more than 50 µM. In addition, the TGI in the experiment with RXF 393 renal, in the experiment with SF-295 CNS, with SW-620 colon and with T-47D breast was more than 50 µM throughout.
On to `Cc1ccc(S(=O)(=O)N(C)C)cc1[N+](=O)[O-]`, for which the GI50 in the experiment on HT29 colon, in the experiment with KM12 colon, with M14 melanoma, in the experiment with OVCAR-8 ovarian, in the experiment on PC-3 prostate and with RXF 393 renal was more than 100 µM each time. Moreover, the GI50 in the experiment on SF-295 CNS, in the experiment with SW-620 colon and with T-47D breast was more than 100 µM in each case. In addition, the TGI with HT29 colon, in the experiment on KM12 colon, in the experiment with M14 melanoma, in the experiment on OVCAR-8 ovarian, in the experiment with PC-3 prostate and with RXF 393 renal was more than 100 µM throughout. Further, the TGI in the experiment on SF-295 CNS, with SW-620 colon and in the experiment with T-47D breast was more than 100 µM throughout.
`CC1=CC[C@@H]2[C@@H](CC[C@@]2(C)O)C(C)(C)[C@H]1CC[C@@H]1[C@@]2(C)CCC(=O)C(C)(C)O[C@@H]2CC[C@]1(C)O`: the TGI with KM12 colon was 29.6 µM; in the experiment with M14 melanoma, 59.3 µM; in the experiment with OVCAR-8 ovarian, 62.1 µM; in the experiment with PC-3 prostate it was more than 100 µM; in the experiment with SF-295 CNS it was 48.9 µM; with SW-620 colon it was more than 100 µM. In the experiment with T-47D breast, the TGI was more than 100 µM.
For the molecule `O=C1c2ccn(CCCCN3CCOCC3)c2C(=O)c2c1c(O)c1ccccc1c2O`, the GI50 is 3.75 µM in the experiment with HT29 colon; 2 µM in the experiment on K-562 leukemia; 5.21 µM in the experiment on KM12 colon; 2.36 µM with M14 melanoma; 5.52 µM in the experiment on OVCAR-8 ovarian; 6.96 µM with PC-3 prostate. Also, the GI50 with RXF 393 renal was 2.2 µM; with SF-295 CNS it was 3.58 µM; with T-47D breast, 8.45 µM. Besides, the TGI in the experiment on HT29 colon was determined as 97 µM; with K-562 leukemia, 4.53 µM; with KM12 colon, 18.8 µM; with M14 melanoma it was 6.32 µM; in the experiment on OVCAR-8 ovarian it was 20 µM; with PC-3 prostate it was 27.3 µM. Also, the TGI in the experiment on RXF 393 renal amounted to 6.93 µM; in the experiment on SF-295 CNS, 16.2 µM; with T-47D breast, 97.7 µM.
As to `O=S(=O)(Nc1ccc(-c2nc(-c3cccc(OCCN4CCOCC4)c3)c(-c3ccnc(Br)c3)[nH]2)cc1)c1ccccc1`, the GI50 was 2.32 µM with K-562 leukemia; 3.21 µM in the experiment with KM12 colon; 2.09 µM in the experiment with M14 melanoma; 3.27 µM with OVCAR-8 ovarian; 2.4 µM in the experiment with PC-3 prostate; 2.26 µM with RXF 393 renal. Besides, the GI50 in the experiment with SF-295 CNS is 1.72 µM; in the experiment on SW-620 colon, 3.53 µM; in the experiment on T-47D breast it was 2.86 µM. For the same molecule, the TGI in the experiment with K-562 leukemia is more than 100 µM; in the experiment with KM12 colon, more than 100 µM; in the experiment on M14 melanoma it was 5.55 µM; in the experiment on OVCAR-8 ovarian it was more than 100 µM; in the experiment with PC-3 prostate, 36.6 µM; in the experiment with RXF 393 renal, 6.78 µM. Also, the TGI in the experiment on SF-295 CNS was 4.1 µM; in the experiment with SW-620 colon, more than 100 µM; in the experiment with T-47D breast, 28.6 µM.
With `O=C1Nc2ccc(Cl)cc2/C1=C\c1c(-c2ccc(F)cc2)nc2ccccn12`, the GI50 with HT29 colon was 2.33 µM; with KM12 colon, 2.04 µM; with M14 melanoma, 3.02 µM; in the experiment on OVCAR-8 ovarian, 2.28 µM; with PC-3 prostate, 2.43 µM; in the experiment on RXF 393 renal it was 1.87 µM. In addition, the GI50 in the experiment with SF-295 CNS was 1.87 µM; with SW-620 colon, 3 µM; in the experiment with T-47D breast it was 4.35 µM. Moreover, the TGI amounted to 5.41 µM in the experiment with HT29 colon; 4.61 µM in the experiment on KM12 colon; 8.62 µM in the experiment on M14 melanoma; 5.99 µM in the experiment with OVCAR-8 ovarian; 8.36 µM with PC-3 prostate; 4.2 µM in the experiment with RXF 393 renal. The TGI with SF-295 CNS turned out to be 4.23 µM; in the experiment with SW-620 colon, 11.7 µM; in the experiment with T-47D breast it was 19.6 µM.
`Cn1ncc2c(Nc3ccc(Br)cc3)nc(Nc3ccc(Br)cc3)nc21`: the GI50 is 2.03 µM with HT29 colon; 1.59 µM in the experiment on K-562 leukemia; 1.76 µM in the experiment on KM12 colon; 2.09 µM in the experiment on M14 melanoma; 4.15 µM with OVCAR-8 ovarian; 2.81 µM with RXF 393 renal. Further, the GI50 in the experiment with SF-295 CNS was 1.82 µM; in the experiment with SW-620 colon, 2.93 µM; in the experiment with T-47D breast, 2.7 µM. Further, the TGI in the experiment on HT29 colon turned out to be 4.32 µM; in the experiment on K-562 leukemia it was 4.3 µM; in the experiment on KM12 colon, 3.48 µM; with M14 melanoma, 4.63 µM; with OVCAR-8 ovarian it was 63.5 µM; in the experiment on RXF 393 renal it was 7.57 µM. Besides, the figures for the TGI with SF-295 CNS, with SW-620 colon and in the experiment on T-47D breast were 4.03 µM, 8.97 µM and 14.6 µM, respectively.
Consider `COc1ccc2c(c1)Oc1nc(N)c(C#N)c(N)c1C2Sc1ccc(SC)cc1` (stereo not drawn), for which the GI50 in the experiment with HT29 colon was 2.2 µM; in the experiment with K-562 leukemia, 2.71 µM; in the experiment on KM12 colon, 1.78 µM; with M14 melanoma, 1.76 µM; in the experiment with OVCAR-8 ovarian, 1.76 µM; in the experiment with PC-3 prostate, 1.77 µM. Also, the figures for the GI50 in the experiment on RXF 393 renal, with SF-295 CNS and in the experiment on T-47D breast were 1.72 µM, 1.81 µM and 1.94 µM, respectively. Moreover, the TGI in the experiment with HT29 colon came to 4.36 µM; in the experiment on K-562 leukemia it was 10.3 µM; in the experiment on KM12 colon, 3.49 µM; with M14 melanoma, 3.33 µM; in the experiment with OVCAR-8 ovarian, 3.19 µM; in the experiment with PC-3 prostate, 3.27 µM. The figures for the TGI in the experiment on RXF 393 renal, in the experiment on SF-295 CNS and in the experiment on T-47D breast were 3.11 µM, 3.34 µM and 4.91 µM, respectively.
`COc1ccc(-c2cc3c4c(nc5ccccc5c4c2)CC(c2cc(OC)c(OC)c(OC)c2)O3)cc1` (stereo not drawn): the GI50 in the experiment with HT29 colon was 3.07 µM; in the experiment with K-562 leukemia it was 3.37 µM; in the experiment on KM12 colon, 3.78 µM; in the experiment on M14 melanoma, 2.96 µM; in the experiment on OVCAR-8 ovarian, 2.71 µM; with RXF 393 renal, 1.92 µM. The GI50 in the experiment with SF-295 CNS is 3.5 µM; in the experiment with SW-620 colon, 2.63 µM; with T-47D breast it was 2.34 µM. The TGI was more than 100 µM in the experiment on HT29 colon; more than 100 µM in the experiment with K-562 leukemia; more than 100 µM in the experiment on KM12 colon; 28.7 µM in the experiment with M14 melanoma; more than 100 µM in the experiment on OVCAR-8 ovarian; 4.65 µM with RXF 393 renal. Further, the values for the TGI with SF-295 CNS, in the experiment with SW-620 colon and with T-47D breast were 12.5 µM, more than 100 µM and 7.53 µM, respectively.
